Data taken from patent publication US20250122147A1, “ARYL CYCLOHEXANEDIONE DERIVATIVE OR SALT THEREOF, PEST CONTROL AGENT CONTAINING SAME, AND METHOD FOR USE THEREOF” (ADEKA Corporation, priority 2021, published 2025).

What was measured:
Dirofilaria immitis = assay: Influence evaluation test on the growth of Dirofilaria immitis; details: 168 h, read-out: development inhibition rate from the L3 stage larva to the L4-stage larva
Plutella xylostella = assay: Insecticidal test against Plutella xylostella; details: 500 ppm drug solution; Chinese cabbage seedlings with eggs immersed about 30 sec; six days after immersion; 25° C.
Description: Six days after the immersion in the drug solution, the number of surviving insects was examined. […] In triplicate using 10 per plot.

Laodelphax striatellus = assay: Insecticidal test against Laodelphax striatellus; details: 500 ppm drug solution; rice seedlings immersed 30 seconds; three-instar insects; eight days after inoculation
[1] = tested on: Frankliniella occidentalis; assay: Insecticidal test against Frankliniella occidentalis; details: 500 ppm drug solution sprayed on Phaseolus vulgaris leaf pieces with hatched larvae; four days after treatment
Description: [formula] • assessment criteria.
Female adult Frankliniella occidentalis were inoculated onto Phaseolus vulgaris leaf pieces, and after allowing them to lay eggs for one day, the female adults were removed. […] Four days after the treatment, the number of surviving larvae of this species was examined. […] In duplicate.

Structure (SMILES)	corrected mortality, rating of assessment (Plutella xylostella)	other results
O=C1CC(c2ccc(C(F)(F)F)cc2)CC(O)=C1C(=O)Nc1nccs1 (centres unmarked) [1-47, 5-hydroxy-3-oxo-N-(thiazol-2-yl)-4′-(trifluoromethyl)-1,2,3,6-tetrahydro-[1,1′-biphenyl]-4-carboxamide]		inhibition at 10 µM (Dirofilaria immitis): ≥ 50%
CONC1=C(C(=O)Nc2ccc(F)cc2)C(=O)CC(c2ccc(C(F)(F)F)cc2)C1 (centres unmarked) [1-227, N-(4-fluorophenyl)-5-(methoxyamino)-3-oxo-4′-(trifluoromethyl)-1,2,3,6-tetrahydro-[1,1′-biphenyl]-4-carboxamide]		inhibition at 10 µM (Dirofilaria immitis): ≥ 50%
O=C1CC(c2ccc(C(F)(F)F)cc2)CC(SCc2ccccc2)=C1C(=O)Nc1ccc(F)cc1 (centres unmarked) [1-225]	D or higher	corrected mortality, rating of assessment (Laodelphax striatellus): D or higher
O=C1CC(c2ccc(C(F)(F)F)nc2)CC(O)=C1C(=O)Nc1ccc(F)cc1 (centres unmarked) [1-68]	D or higher	corrected mortality, rating of assessment (Laodelphax striatellus): D or higher
CC1(c2ccc(C(F)(F)F)cc2)CC(=O)C(C(=O)Nc2ccc(F)cc2)=C(O)C1 (centres unmarked) [1-139]		corrected mortality, rating of assessment [1]: D or higher
O=C1CC(c2ccc(C(F)(F)F)cc2)CC(O)=C1C(=O)Nc1cccc(F)c1 (centres unmarked) [1-43]	D or higher	
N#Cc1cccc(NC(=O)C2=C(O)CC(c3ccc(C(F)(F)F)cc3)CC2=O)c1 (centres unmarked) [1-34]	D or higher	
O=C1CC(c2ccc(C(F)(F)F)nc2)CC(O)=C1C(=O)Nc1ccc(F)cn1 (centres unmarked) [1-149]	D or higher	corrected mortality, rating of assessment (Laodelphax striatellus): D or higher
Cc1cc(Cl)ccc1NC(=O)C1=C(O)CC(c2ccc(C(F)(F)F)cc2)CC1=O (centres unmarked) [1-16]	D or higher	
O=C1CC(c2ccc(C(F)(F)F)cc2)CC(O)=C1C(=O)Nc1c(Cl)cccc1Cl (centres unmarked) [1-23]	D or higher	
O=C1CC(c2ccc(C(F)(F)F)cc2)CC(O)=C1C(=O)Nc1ccc(Oc2ccccc2)cc1 (centres unmarked) [1-54]	D or higher	
O=C1CC(c2ccc(Cl)s2)CC(O)=C1C(=O)Nc1ccc(F)cc1 (centres unmarked) [1-145]	D or higher	
Cc1ccc(C2CC(=O)C(C(=O)Nc3ccc(F)cc3)=C(O)C2)s1 (centres unmarked) [1-76]	D or higher	
O=C1CC(c2ccc(C(F)(F)F)cc2)CC(O)=C1C(=O)Nc1ccc(OC(F)(F)F)cc1 (centres unmarked) [1-9]	D or higher	corrected mortality, rating of assessment (Laodelphax striatellus): D or higher; corrected mortality, rating of assessment [1]: D or higher
Cc1ccc(C2CC(=O)C(C(=O)Nc3ccc(F)cc3)=C(O)C2)cc1 (centres unmarked) [1-63]	D or higher	
O=C1CC(c2ccc(C(F)(F)F)cc2)CC(O)=C1C(=O)Nc1ccc(F)cn1 (centres unmarked) [1-48, N-(5-fluoropyridin-2-yl)-5-hydroxy-3-oxo-4′-(trifluoromethyl)-1,2,3,6-tetrahydro-[1,1′-biphenyl]-4-carboxamide]	D or higher	inhibition at 10 µM (Dirofilaria immitis): ≥ 50%
O=C1CC(c2ccc(C(F)(F)F)cc2)CC(O)=C1C(=O)Nc1ccc(F)cc1F (centres unmarked) [1-17]	D or higher	
O=C1CC(c2ccc(C(F)(F)F)cc2)CC(O)=C1C(=O)Nc1ccc(S(F)(F)(F)(F)F)cc1 (centres unmarked) [1-184]	D or higher	
O=C1CC(c2ccc(C(F)(F)F)cc2)CC(O)=C1C(=S)Nc1ccccc1F (centres unmarked) [1-94]	D or higher	
O=C1CC(c2ccc(C(F)(F)F)cc2)CC(O)=C1C(=O)Nc1cccc(Cl)c1 (centres unmarked) [1-21]	D or higher	
O=C1CC(c2ccc(C(F)(F)F)cc2)CC(O)=C1C(=O)Nc1c(F)cccc1F (centres unmarked) [1-18]	D or higher	

Structure (SMILES)	corrected mortality, rating of assessment (Plutella xylostella)	other results
Cn1ccc(NC(=O)C2=C(O)CC(c3ccc(C(F)(F)F)cc3)CC2=O)n1 (centres unmarked) [1-167]	D or higher	
O=C1CC(c2ccc(C(F)(F)F)nc2)CC(O)=C1C(=O)Nc1ccc(F)nc1 (centres unmarked) [1-150]		corrected mortality, rating of assessment (Laodelphax striatellus): D or higher; corrected mortality, rating of assessment [1]: D or higher
C[S+]([O-])c1ccc(C2CC(=O)C(C(=O)Nc3ccc(F)cn3)=C(O)C2)cc1 (centres unmarked) [1-164]	D or higher	corrected mortality, rating of assessment (Laodelphax striatellus): D or higher
C[S+]([O-])c1ccc(C2CC(=O)C(C(=O)Nc3ccc(Cl)cc3)=C(O)C2)cc1 (centres unmarked) [1-233]	D or higher	
O=C1CC(c2ccc(C(F)(F)F)cc2)CC(O)=C1C(=O)Nc1cccs1 (centres unmarked) [1-40]	D or higher	
O=C1CC(c2ccc(SC(F)(F)F)cc2)CC(O)=C1C(=O)Nc1ccc(Cl)cc1 (centres unmarked) [1-235]	D or higher	
C[S+]([O-])c1ccc(C2CC(=O)C(C(=O)Nc3ccc(F)cc3)=C(O)C2)cc1 (centres unmarked) [1-212]	D or higher	
Cc1ccc(NC(=O)C2=C(O)CC(c3ccc(C(F)(F)F)cc3)CC2=O)cc1 (centres unmarked) [1-15]	D or higher	
O=C1CC(c2ccc(C(F)(F)F)cc2)CC(O)=C1C(=O)Nc1cccc([N+](=O)[O-])c1 (centres unmarked) [1-35]	D or higher	
O=C1CC(c2ccc(C(F)(F)F)cc2)CC(O)=C1C(=S)Nc1ccc(F)cn1 (centres unmarked) [1-108]	D or higher	
O=C1CC(c2ccc(C(F)(F)F)cc2)CC(O)=C1C(=O)Nc1ccnc(F)c1 (centres unmarked) [1-147]	D or higher	
O=C1CC(c2ccc(C(F)(F)F)nc2)CC(O)=C1C(=O)Nc1ccnc(F)c1 (centres unmarked) [1-151]	D or higher	
O=C1CC(c2cncs2)CC(O)=C1C(=O)Nc1ccc(F)cc1 (centres unmarked) [1-152]	D or higher	corrected mortality, rating of assessment (Laodelphax striatellus): D or higher
Cc1ccccc1C1CC(=O)C(C(=O)Nc2ccc(F)cc2)=C(O)C1 (centres unmarked) [1-1]	D or higher	
O=C1CC(c2ccc(C(F)(F)F)nc2)CC(O)=C1C(=O)Nc1ccc(OC(F)(F)F)cc1 (centres unmarked) [1-70]	D or higher	
O=C1CC(c2ccc(C(F)(F)F)cc2)CC(O)=C1C(=O)Nc1cccc(C(F)(F)F)c1 (centres unmarked) [1-30]	D or higher	
O=C1CC(c2ccc(C(F)(F)F)cc2)CC(O)=C1C(=O)Nc1ccc(C(F)(F)F)cn1 (centres unmarked) [1-142]	D or higher	
O=C1CC(c2ccc(Br)cn2)CC(O)=C1C(=O)Nc1ccc(F)cc1 (centres unmarked) [1-161]	D or higher	corrected mortality, rating of assessment (Laodelphax striatellus): D or higher
O=C1CC(c2ccc(C(F)(F)F)cc2)CC(O)=C1C(=S)Nc1ccccc1 (centres unmarked) [1-93]	D or higher	
CSc1ccc(C2CC(=O)C(C(=O)Nc3ccc(Cl)cc3)=C(O)C2)cc1 (centres unmarked) [1-234]	D or higher	
CC(C)NC(=S)C1=C(O)CC(c2ccc(C(F)(F)F)cc2)CC1=O (centres unmarked) [1-84]		corrected mortality, rating of assessment (Laodelphax striatellus): D or higher

Structure (SMILES)	corrected mortality, rating of assessment (Plutella xylostella)	other results
O=C1CC(c2ccc(C(F)(F)F)cc2)CC(O)=C1C(=O)Nc1ccc(F)c(F)c1 (centres unmarked) [1-19]	D or higher	
O=C1CC(c2ccc(Br)cn2)CC(O)=C1C(=S)Nc1ccc(F)cc1 (centres unmarked) [1-229]	D or higher	
N#Cc1ccc(NC(=O)C2=C(O)CC(c3ccc(C(F)(F)F)cc3)CC2=O)cc1 (centres unmarked) [1-7]	D or higher	
O=C1CC(c2ccc(C(F)(F)F)nc2)CC(O)=C1C(=S)Nc1ccc(F)cn1 (centres unmarked) [1-231]	D or higher	
Cc1ccc(C2CC(=O)C(C(=O)Nc3ccc(F)cn3)=C(O)C2)cc1 (centres unmarked) [1-148]	D or higher	
O=C1CC(c2ccc(C(F)(F)F)cc2)CC(O)=C1C(=O)Nc1ccc([S+]([O-])C(F)(F)F)cc1 (centres unmarked) [1-52]	D or higher	
O=C1CC(c2ccc(C(F)(F)F)cc2)CC(O)=C1C(=O)Nc1ccc(F)nc1 (centres unmarked) [1-146]	D or higher	
O=C1CC(c2ccc([S+]([O-])C(F)(F)F)cc2)CC(O)=C1C(=O)Nc1ccc(F)cc1 (centres unmarked) [1-211]	D or higher	
N#Cc1ccc(C2CC(=O)C(C(=O)Nc3ccc(F)cc3)=C(O)C2)cc1 (centres unmarked) [1-61]	D or higher	
NC(=O)c1ccc(C2CC(=O)C(C(=O)Nc3ccc(F)cc3)=C(O)C2)cc1 (centres unmarked) [1-62]	D or higher	
O=C1CC(c2cnco2)CC(O)=C1C(=O)Nc1ccc(F)cc1 (centres unmarked) [1-223]	D or higher	
O=C1CC(c2ccc3c(c2)OCO3)CC(O)=C1C(=O)Nc1ccc(F)cc1 (centres unmarked) [1-222]	D or higher	
O=C1CC(c2ccc(C(F)(F)F)cc2)CC(O)=C1C(=O)Nc1ccc(S(=O)(=O)C(F)(F)F)cc1 (centres unmarked) [1-53]	D or higher	
CS(=O)(=O)c1ccc(C2CC(=O)C(C(=O)Nc3ccc(F)cc3)=C(O)C2)cc1 (centres unmarked) [1-210]	D or higher	
CS(=O)(=O)c1ccc(C2CC(=O)C(C(=O)Nc3ccc(F)cn3)=C(O)C2)cc1 (centres unmarked) [1-165]	D or higher	
O=C1CC(c2ccc(C(F)(F)F)cc2)CC(O)=C1C(=O)Nc1ccccc1F (centres unmarked) [1-38, N-(2-fluorophenyl)-5-hydroxy-3-oxo-4′-(trifluoromethyl)-1,2,3,6-tetrahydro-[1,1′-biphenyl]-4-carboxamide]	D or higher	
O=C1CC(c2ccc([N+](=O)[O-])cc2)CC(O)=C1C(=O)Nc1ccc(F)cc1 (centres unmarked) [1-207]	D or higher	
O=C1CC(c2ccc(SC(F)(F)F)cc2)CC(O)=C1C(=O)Nc1ccc(F)cc1 (centres unmarked) [1-213]	D or higher	
O=C1CC(c2ccc(SC(F)(F)F)cc2)CC(O)=C1C(=O)Nc1ccc(F)cc1 (centres unmarked) [1-66]	D or higher	
